Experiment: molar heat capacity at constant pressure
Conditions: 101.33 kPa, Crystal 2, Vacuum adiabatic calorimetry

Cc1ccc(-c2ccccc2)cc1 [4-methylbiphenyl]
Conditions | molar heat capacity at constant pressure [J/K/mol]
83.21 K | 81.22
84.78 K | 82.63
85.83 K | 84.24
87.34 K | 85.25
88.37 K | 86.4
89.4 K | 87.09
90.43 K | 87.85
91.47 K | 88.19
92.5 K | 89.19
93.53 K | 89.62
94.55 K | 90.59
95.58 K | 91.13
96.61 K | 92.3
97.64 K | 93.83
98.66 K | 92.61
99.69 K | 94.23
100.72 K | 95.15
101.74 K | 95.13
102.77 K | 95.55
104.82 K | 96.61
105.84 K | 97.41
106.86 K | 98.57
107.88 K | 99.36
108.9 K | 99.57
109.93 K | 100.46
110.95 K | 100.63
111.97 K | 100.49
112.99 K | 102.03
114.01 K | 102.56
115.02 K | 103.36
116.04 K | 104.67
117.06 K | 104.77
118.08 K | 104.33
119.1 K | 105.95
120.12 K | 106.87
121.14 K | 106.67
122.15 K | 107.47
123.17 K | 108.38
124.18 K | 108.38
125.2 K | 108.94
126.21 K | 110.22
127.23 K | 110.82
128.23 K | 111.43
129.25 K | 111
130.26 K | 112.24
131.27 K | 113.68
132.28 K | 113.17
133.29 K | 114.17
134.3 K | 115.39
135.31 K | 115.98
136.32 K | 115.79
137.33 K | 115.95
138.33 K | 116.76
139.34 K | 118.07
140.34 K | 119.05
141.35 K | 119.04
142.35 K | 119.96
143.36 K | 120
144.35 K | 120.48
145.36 K | 120.67
146.36 K | 122
147.36 K | 122.17
148.36 K | 124.22
149.36 K | 124.87
150.36 K | 125.07
151.36 K | 125.72
153.66 K | 127.07
154.92 K | 127.26
155.92 K | 127.72
156.91 K | 128.68
157.91 K | 129.05
158.9 K | 129.98
159.89 K | 130.91
162.88 K | 133.43
163.87 K | 132.72
164.87 K | 133.55
165.85 K | 133.77
166.84 K | 134.91
167.83 K | 135.89
169.79 K | 137.42
170.78 K | 137.22
171.76 K | 137.79
172.74 K | 138.45
173.73 K | 139.11
174.71 K | 140.53
175.69 K | 140.7
176.68 K | 141.47
177.66 K | 142.43
178.64 K | 143.15
179.62 K | 143.76
180.6 K | 144.25
181.58 K | 145.06
182.56 K | 146.17
183.54 K | 146.07
184.52 K | 146.77
185.47 K | 148
186.45 K | 148.42
187.42 K | 148.71
188.4 K | 149.77
189.37 K | 150.31
190.34 K | 151.29
191.32 K | 152.46
192.29 K | 153.07
193.26 K | 153.26
194.23 K | 154.48
195.2 K | 154.92
196.17 K | 155.18
197.14 K | 156.43
198.1 K | 156.66
199.07 K | 156.85

Source: the NIST ThermoML archive (doi:10.1016/j.jct.2010.05.002)
